Where no end group is shown, it is not given here.
What was measured:
[1] = test system: L929 mouse fibroblast cells; experiment: Cytotoxicity, MTT assay; type: cell-based; details: 800 µM, 24 h; for Cell viability (%): L929 cells
Procedure: The toxicity of the test peptides against L929 mouse fibroblast cells was assessed by 3-(4,5-dimethylthiazol-2-yl)-2,5-diphenyltetrazolium bromide (MTT) assay. L929 mouse fibroblast cells from American Type Culture Collection (ATCC, Manassas, VA, USA) were cultured in Dulbecco's Modified Eagle Medium (DMEM; HyClone, Utah, USA) supplemented with 10% fetal bovine serum (Gibco, South America), 10 mM 4-(2-hydroxyethyl)-1 piperazineethanesulfonic acid (HEPES; HyClone, Utah, USA), 2 mM L-glutamine (Gibco, Brazil) and 100 U/mL penicillin and 100 μg/ml streptomycin (Gibco, USA) in a 5% CO2 atmosphere at 37°C. L929 cells (2×10^4 cells/well) were seeded in 96-well plates (Nunc) and incubated overnight. The culture medium was discarded and replaced by 100 μL of fresh DMEM containing the test compounds (final concentration 800 μM). Cells without the test compounds served as untreated control. After 24 h incubation, 20 μL of MTT solution (5 mg/mL; Sigma, St. Louis, MO, USA) was added and incubated for 3 h. The culture supernatant was removed and 100 μL dimethyl sulfoxide was added to each well to dissolve the formazan crystals. The absorbance was measured at 540 nm on a microplate reader (BioTek Synergy HT). Percentage of cell viability was calculated according to the equation: (OD of treated cells/ OD of untreated cells) × 100.

rhlI mRNA = experiment: qRT-PCR of quorum sensing-related gene rhlI; type: cell-based, Pseudomonas aeruginosa; details: 800 µM, 10 h
Procedure: (§1) The effects of BmKn‒22 peptide on the expression of quorum sensing‒related genes in P. aeruginosa PAO1 were assessed by qPCR. Briefly, bacterial suspension at approximately 10^7 CFU/mL was cultured in the presence or absence of the test peptide (800 μM, final concentration) at 37 ^OC for 10 h using a shaking incubator. After centrifugation at 4,500 rpm for 10 minutes, the bacterial cells were harvested and subsequently subjected to total RNA extraction using TRIzol® reagent (Invitrogen, USA) as per the manufacturer’s instruction. The concentration of the extracted RNA was measured using Nanodrop spectrophotometer (NanoDrop Technologies, USA). Thereafter, 1 μg of extracted RNA was reverse-transcribed into cDNA using Random Hexamer primer and RevertAid First Strand cDNA synthesis kit (Fermantas), which was amplified by real-time PCR. The primers for the genes lasI, lasR, RhlI, RhlR and 16S rRNA were used (Table 2). All primers were synthesized by the Integrated DNA Technology (IDT), Canada. The reaction mixture consisted of 1× AccuPower® 2X GreenStar™ qPCR Master Mix, 0.4 μmol/L each forward primer and reverse primer and 1 μL of cDNA in a final volume of 10 μL. Thermal cycles used was 95 ^OC for 2.5 min, followed by 40 cycles of 95 ^OC for 30 sec, 60 ^OC for 30 sec and 72 ^OC for 30 sec. The expression level of the target gene was normalized to 16S rRNA gene. Relative expression of the target genes was obtained from 2^‒ΔΔct.

lasR mRNA = experiment: qRT-PCR of quorum sensing-related gene lasR; type: cell-based, Pseudomonas aeruginosa; details: 800 µM, 10 h
Procedure: as §1

sheep red blood cells = experiment: Hemolytic assay; type: cell-based; details: 800 µM, 37 °C, 1 h
Procedure: Hemolytic activity of the test peptides was assayed according to a protocol described previously. Suspension of 2% sheep red blood cells (100 μL) prepared in PBS pH 7.4 was incubated with 100 μL of the test peptides (800 μM, final concentration). After incubation at 37 ^OC for 1 h, the suspension was centrifuged at 1,000 g for 5 min followed by transferring 100 μL of the supernatant to 96 well-microtiter plate (Nunc). Released hemoglobin was then determined by measuring an absorbance at 405 nm using a microplate reader (BioTek Synergy HT). Positive and negative controls in this assay were 1% Triton X-100 and PBS pH 7.4, respectively. Hemolysis (%) was calculated using an equation: (OD405 nm peptide ‒ OD405 nm PBS pH 7.4)/(OD405 nm 1% Triton X-100 ‒ OD405 nm PBS pH 7.4) × 100.

[2] = test system: pyocyanin production of P. aeruginosa PAO1; experiment: Pyocyanin assay, chloroform extraction; type: cell-based, Pseudomonas aeruginosa
Procedure: Pyocyanin pigments produced by P. aeruginosa PAO1 after exposure to the BmKn‒22 peptide were determined according to the protocol described previously. Briefly, 750 μL of P. aeruginosa suspension (10^7 CFU/mL, final concentration) was mixed with 250 μL of LB broth containing the test peptide at final concentrations of 200 ‒ 800 μM and incubated at 37 ^OC for 24 hours with agitation (150 rpm). Control culture without the test peptide was simultaneously propagated. After centrifugation at 4,500 rpm for 10 minutes, supernatant was collected and pyocyanin was extracted with chloroform followed by 0.2 N HCl. The suspension was centrifuged once at 4,500 rpm for 10 minutes, and the pink phase layer was subjected to optical density determination at […] using a microplate reader (BioTek Synergy HT).

[3] = normalized to 16S rRNA, 2^-ΔΔct, untreated control = 1, mean of 2 independent experiments in quadruplicate

FIGAIARLLSK [BmKn-22]
effect on viability of L929 cells ([1]; compared with untreated control, result in words): low effects on cell viability
Cell viability (%) ([1]; Exp. 1): 108.407%
Cell viability (%) ([1]; Exp. 2): 75.218%
Cell viability (%) ([1]; Exp. 3): 94.787%
Relative mRNA expression, rhlI (rhlI mRNA; [3]): 1.127
Relative mRNA expression, rhlI (rhlI mRNA; Exp. 1): 0.929
Relative mRNA expression, rhlI (rhlI mRNA; Exp. 2): 1.325
mRNA expression of rhlI (rhlI mRNA; result in words): no alteration
Relative mRNA expression, lasR (lasR mRNA; [3]): 0.949
Relative mRNA expression, lasR (lasR mRNA; Exp. 1): 0.732
Relative mRNA expression, lasR (lasR mRNA; Exp. 2): 1.166
mRNA expression of lasR (lasR mRNA; result in words): no alteration
lysis of red blood cells (sheep red blood cells): less or no hemolysis
Pyocyanin production (% control) ([2]; 200 µM, 37 °C, 24 h, 150 rpm, OD 380 nm, mean of 3 independent experiments): 47.395 % control
Pyocyanin production (% control) ([2]; 200 µM, Exp. 1): 62.849 % control
Pyocyanin production (% control) ([2]; 200 µM, Exp. 2): 40.419 % control
Pyocyanin production (% control) ([2]; 200 µM, Exp. 3): 38.918 % control
Pyocyanin production (% control) ([2]; 400 µM, 37 °C, 24 h, 150 rpm, OD 380 nm, mean of 3 independent experiments): 48.157 % control
Pyocyanin production (% control) ([2]; 400 µM, Exp. 1): 59.310 % control
Pyocyanin production (% control) ([2]; 400 µM, Exp. 2): 37.273 % control
Pyocyanin production (% control) ([2]; 400 µM, Exp. 3): 47.889 % control
Pyocyanin production (% control) ([2]; 800 µM, 37 °C, 24 h, 150 rpm, OD 380 nm, mean of 3 independent experiments): 60.164 % control
Pyocyanin production (% control) ([2]; 800 µM, Exp. 1): 68.994 % control
Pyocyanin production (% control) ([2]; 800 µM, Exp. 2): 42.898 % control
Pyocyanin production (% control) ([2]; 800 µM, Exp. 3): 68.601 % control

Source: publication PMC6568410, “A scorpion venom peptide derivative BmKn‒22 with potent antibiofilm activity against Pseudomonas aeruginosa” (PLoS ONE, 2019)
